Assay results published in PMC9525273 (Nature Communications, 2022).

How the values were obtained:
[1] = system: parasite lines with a G358S mutation in PfATP4; experiment: P. falciparum proliferation assays, statements on all lines with the G358S mutation; format: cell-based, Plasmodium falciparum
Method: Two types of parasite proliferation assays were employed in this study, with both yielding highly consistent results. For the NF54-based lines and Dd2-B2-PfATP4^G358S and its parent, assays were initiated with cultures containing predominantly ring-stage parasites with a parasitaemia of 0.3% and a haematocrit of 1%. All assays using NF54 were performed in culture media containing 10% O + human serum. The duration of the assays was 72 h and the concentration of DMSO was <0.5% (v/v). Serial dilutions of the test compounds were performed using a Tecan D300e digital dispenser, with parasite cultures added manually. Parasite survival was assessed by flow cytometry on an Intellicyt iQue3 (Essen Bioscience), with 1× SYBR Green I (Invitrogen) and 200 nM MitoTracker Deep Red FM (Invitrogen) used to stain the nucleus and the mitochondria in live parasites, respectively. The gating strategy used to quantify parasite survival, performed using FlowJo version 10 (FlowJo LLC.), is illustrated in Supplementary Fig. 9. IC50 and IC90 values were calculated by linear interpolation of the dose-response data.
For experiments with all other parasites, the effects of compounds of interest on parasite proliferation was measured in 96-well plates containing serial dilutions of the compounds in culture medium, with a fluorescent DNA-intercalating dye used to detect surviving parasites. The assays were initiated with erythrocytes infected with predominantly ring-stage parasites, and the starting parasitaemia and haematocrit were both 1%. […] Fluorescence was measured using a FLUOstar OPTIMA plate reader (BMG LABTECH), with OPTIMA version 2.20R2 and MARS Data Analysis Software version 3.01 R2 (BMG LABTECH).

[2] = target: T1, TgATP4^G419S-HA (membranes from T. gondii tachyzoites) (Toxoplasma gondii, UniProt B9QMJ0, G419S); experiment: Membrane ATPase assay, ATP4-associated (Na+-dependent) ATPase activity; format: biochemical; conditions: for IC50 for ATP4-associated ATPase activity: membranes from TgATP4G419S-HA, mean ± SEM
T1 sequence (B9QMJ0 1-1338 G419S): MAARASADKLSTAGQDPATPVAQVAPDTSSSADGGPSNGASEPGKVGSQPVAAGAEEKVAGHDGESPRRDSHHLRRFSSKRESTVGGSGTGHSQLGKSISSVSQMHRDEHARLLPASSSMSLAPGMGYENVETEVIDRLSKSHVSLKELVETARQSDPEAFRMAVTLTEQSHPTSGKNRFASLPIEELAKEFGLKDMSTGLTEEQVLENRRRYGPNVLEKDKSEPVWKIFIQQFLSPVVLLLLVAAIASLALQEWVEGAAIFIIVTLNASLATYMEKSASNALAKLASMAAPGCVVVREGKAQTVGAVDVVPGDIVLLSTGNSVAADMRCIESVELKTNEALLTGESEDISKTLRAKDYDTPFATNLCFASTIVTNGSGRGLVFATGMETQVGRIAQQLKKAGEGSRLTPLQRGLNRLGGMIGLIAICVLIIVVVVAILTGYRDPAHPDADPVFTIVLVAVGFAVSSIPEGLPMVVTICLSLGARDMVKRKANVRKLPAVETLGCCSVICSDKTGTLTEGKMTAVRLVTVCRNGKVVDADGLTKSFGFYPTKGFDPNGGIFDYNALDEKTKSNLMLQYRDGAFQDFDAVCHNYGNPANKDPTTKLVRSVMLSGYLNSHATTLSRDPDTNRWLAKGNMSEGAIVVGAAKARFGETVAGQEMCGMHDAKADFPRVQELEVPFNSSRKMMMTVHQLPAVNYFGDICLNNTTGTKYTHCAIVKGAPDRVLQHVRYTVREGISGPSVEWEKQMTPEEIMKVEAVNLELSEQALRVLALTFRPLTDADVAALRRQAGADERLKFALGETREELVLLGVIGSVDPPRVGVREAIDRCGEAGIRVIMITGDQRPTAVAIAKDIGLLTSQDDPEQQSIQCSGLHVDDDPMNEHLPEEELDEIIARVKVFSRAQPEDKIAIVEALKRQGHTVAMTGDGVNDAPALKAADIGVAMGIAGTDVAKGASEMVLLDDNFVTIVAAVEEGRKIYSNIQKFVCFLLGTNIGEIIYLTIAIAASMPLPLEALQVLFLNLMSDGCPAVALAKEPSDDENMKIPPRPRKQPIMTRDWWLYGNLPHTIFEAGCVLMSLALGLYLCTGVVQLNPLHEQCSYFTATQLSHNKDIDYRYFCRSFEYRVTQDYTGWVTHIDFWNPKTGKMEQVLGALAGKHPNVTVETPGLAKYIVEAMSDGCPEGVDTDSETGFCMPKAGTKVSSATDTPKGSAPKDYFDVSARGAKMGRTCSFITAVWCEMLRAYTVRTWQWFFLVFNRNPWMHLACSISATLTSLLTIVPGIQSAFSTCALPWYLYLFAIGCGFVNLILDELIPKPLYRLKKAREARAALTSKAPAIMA
Method: Membranes from isolated P. falciparum or extracellular T. gondii parasites were prepared by lysing parasites in ice-cold deionized water containing a 1:500 dilution of Protease Inhibitor Cocktail Set III (Merck Millipore), then washing the membrane preparation three times in ice-cold deionized water (with protease inhibitors present for the first two washes)[15]. Protein concentrations in the membrane preparations were measured using a Bradford assay. The PiColorLock Gold Phosphate Detection System (Innova Biosciences) was used to measure the production of Pi from hydrolysis of ATP[15]. Membrane preparations were diluted in either a high Na^+ solution (yielding final conditions in the reactions of 150 mM NaCl, 20 mM KCl, 2 mM MgCl2, 50 mM Tris, pH 7.2) or a Na^+-free solution (yielding final conditions of 150 mM choline chloride, 20 mM KCl, 2 mM MgCl2, 50 mM Tris, pH 7.2) to achieve a total protein concentration of 50 μg/mL. […] The reactions were performed at 37 °C, and were initiated by the addition of 1 mM ATP (Na2ATP۰3H2O; MP Biomedicals) and terminated 10 min later by adding 100 μL of reaction mixture (in duplicate) to 25 μL “Gold mix” in a 96-well plate. “Stabiliser” was added 3 min later, and the plates incubated at room temperature in the dark for 60 min before measuring absorbance at 635 nm. Background values (averaged from wells containing all components, but to which ATP was not added until after the membrane was exposed to Gold mix) were subtracted from the data. For each treatment, the ATPase activity associated with the (Na^+-dependent) PfATP4 and TgATP4 proteins was calculated by subtracting data obtained in the low Na^+ condition (containing only the 2 mM Na^+ introduced on addition of 1 mM Na2ATP) from that obtained in the high Na^+ condition.

[3] = TgATP4G419S-HA membranes, source data of Table 1 (nM there)

| Compound | IC50 ([1]; Plasmodium falciparum, all parasite lines with a G358S mutation in PfATP4 tested in this study) [µM] | IC50 for inhibition of ATP4-associated ATPase activity, MEAN [2, 3] | IC50 for inhibition of ATP4-associated ATPase activity ([2]; TgATP4G419S-HA membranes, single experiments, source data of Table 1 (nM there)) | IC50 for ATP4-associated ATPase activity [2] | effect of the G358S mutation in PfATP4 on parasite susceptibility ([1]; G358S lines vs PfATP4 wild-type controls) |
| --- | --- | --- | --- | --- | --- |
| N#Cc1cc(NC(=O)[C@H]2c3ccccc3C(=O)N(CC(F)(F)F)[C@@H]2c2cccnc2)ccc1F [(+)-SJ733] | > 9 | >4000 | >4000 | > 4000 (3) nM |  |
| C[C@H]1Cc2c([nH]c3cc(Cl)c(F)cc23)[C@@]2(N1)C(=O)Nc1ccc(Cl)cc12 [Cipargamin] |  | 287.6 |  | 288 ± 111 (4) (P = 0.05) nM |  |
| C[C@H]1[C@@H](O)O[C@@H]2O[C@@]3(C)CC[C@H]4[C@H](C)CC[C@@H]1[C@@]24OO3 [Dihydroartemisinin] |  |  |  |  | no effect |
